Earlier results, collected in patent US11195597B2, “Method and device for calculating acid dissociation constant, and program” (FUJITSU LIMITED, priority 2015, dated 2021).

Conditions: known measured value; dissociation point circled in the structure

Which pKa does the source give for CC(C)C(=O)O.N [Number 5] here?
Its pKa is 9.69.

Which pKa does the source give for CC(CCCNC(N)N)C(=O)O.N (stereo not drawn) [Number 10] here?
Its pKa is 9.04.

Which pKa does the source give for CC(CCCNC(N)N)C(=O)O (stereo not drawn) [Number 11] here?
Its pKa is 12.48.

For CC(CC(N)=O)C(=O)O.N (stereo not drawn) [Number 12], which pKa is on record?
Its pKa is 8.8.

Which pKa does the source give for CC(CC(=O)O)C(=O)O.N (stereo not drawn) [Number 13] here?
Its pKa is 9.82.

Which pKa does the source give for CCc1ccccc1.N [Number 14] here?
The pKa was 9.34.

Which pKa does the source give for CCNCc1ccccc1 [Number 15] here?
The pKa was 9.68.

For CNCc1ccccc1 [Number 16], which pKa is on record?
Its pKa is 9.58.

Which pKa does the source give for CC1CCCCC1.N [Number 17] here?
Its pKa is 10.64.

Which pKa does the source give for CNC1CCCCC1 [Number 18] here?
The pKa was 10.49.

With CCCNCCC [Number 22] as the molecule, how does the pKa read?
The pKa was 11.

For CCC(C)NC(C)CC (stereo not drawn) [Number 23, di-sec-butylamine], which pKa is on record?
Its pKa is 11.01.

For C=CCNCC=C [Number 24], which pKa is on record?
The pKa was 9.29.

Which pKa does the source give for C=CCN(C)CC=C [Number 25] here?
Its pKa is 8.79.

Which pKa does the source give for CC(C)CNCC(C)C [Number 28, di-isobutylamine] here?
Its pKa is 10.5.

Which pKa does the source give for CCCCN(C)C [Number 32] here?
Its pKa is 10.02.

With CCCN(C)C [Number 33] as the molecule, how does the pKa read?
Its pKa is 9.99.

For CC(C)CN(C)C [Number 35], which pKa is on record?
Its pKa is 10.52.

For CC(CCC(=O)O)C(=O)O.N (stereo not drawn) [Number 41], which pKa is on record?
Its pKa is 9.67.

Which pKa does the source give for CC(Cc1cnc[nH]1)C(=O)O.N (stereo not drawn) [Number 43] here?
Its pKa is 9.17.

For CCC(C)C(C)C(=O)O.N (stereo not drawn) [Number 44], which pKa is on record?
The pKa was 9.68.

Which pKa does the source give for CC(CCCCN)C(=O)O.N (stereo not drawn) [Number 47] here?
The pKa was 8.95.

With NCCCCC(N)C(=O)O (stereo not drawn) [Number 48] as the molecule, how does the pKa read?
The pKa was 10.53.

For O=C(c1ccccc1)N1CCNCC1 [Number 52], which pKa is on record?
Its pKa is 7.78.

Which pKa does the source give for CC(C)(C)CN [Number 58] here?
Its pKa is 10.21.

For N[C@@H](Cc1ccccc1)C(=O)O [Number 59, phenylalanine], which pKa is on record?
Its pKa is 9.13.

Which pKa does the source give for NCCCCCc1ccccc1 [Number 60, phenylamylamine] here?
The pKa was 10.49.

For NCCCCc1ccccc1 [Number 61], which pKa is on record?
The pKa was 10.4.

For NCCCc1ccccc1 [Number 63], which pKa is on record?
Its pKa is 10.2.

Which pKa does the source give for O=C(O)C1CCCN1 (stereo not drawn) [Number 67] here?
Its pKa is 10.6.

With NC(CO)C(=O)O (stereo not drawn) [Number 72] as the molecule, how does the pKa read?
The pKa was 9.15.

Which pKa does the source give for C[C@@H](O)[C@H](N)C(=O)O [Number 75, threonine] here?
Its pKa is 9.1.

With CCCCN(CCCC)CCCC [Number 76, tri-n-butylamine] as the molecule, how does the pKa read?
The pKa was 10.89.

Which pKa does the source give for NC(Cc1c[nH]c2ccccc12)C(=O)O (stereo not drawn) [Number 82] here?
The pKa was 9.39.

For CC(C)C(N)C(=O)O (stereo not drawn) [Number 84], which pKa is on record?
Its pKa is 9.62.

With COc1ccccn1 [Number 90, 2-methoxypyridine] as the molecule, how does the pKa read?
Its pKa is 3.3.

With Nc1ccc2ccccc2c1 [Number 92, 2-naphthalamine] as the molecule, how does the pKa read?
Its pKa is 4.16.

With N#Cc1ccccn1 [Number 93, 2-cyanopyridine] as the molecule, how does the pKa read?
The pKa was −0.3.

Which pKa does the source give for O=[N+]([O-])c1ccccn1 [Number 94, 2-nitropyridine] here?
Its pKa is −2.6.

For COc1cccnc1 [Number 96, 3-methoxypyridine], which pKa is on record?
Its pKa is 4.9.

With Cc1cccnc1 [Number 97] as the molecule, how does the pKa read?
The pKa was 5.7.

With N#Cc1cccnc1 [Number 98, 3-cyanopyridine] as the molecule, how does the pKa read?
The pKa was 1.4.

With O=[N+]([O-])c1cccnc1 [Number 99, 3-nitropyridine] as the molecule, how does the pKa read?
Its pKa is 0.6.

With c1ccc(-c2cccnc2)cc1 [Number 100, 3-phenylpyridine] as the molecule, how does the pKa read?
The pKa was 4.8.

Which pKa does the source give for COc1ccncc1 [Number 101, 4-methoxypyridine] here?
Its pKa is 6.6.

Which pKa does the source give for N#Cc1ccncc1 [Number 103, 4-cyanopyridine] here?
The pKa was 1.9.

For O=[N+]([O-])c1ccncc1 [Number 104, 4-nitropyridine], which pKa is on record?
Its pKa is 1.6.

Which pKa does the source give for c1ccc(-c2ccncc2)cc1 [Number 105, 4-phenylpyridine] here?
The pKa was 5.5.

Which pKa does the source give for c1ccc(Nc2ccccc2)cc1 [Number 108] here?
The pKa was 0.78.

Which pKa does the source give for CN(C)c1ccccc1 [Number 109] here?
Its pKa is 5.2.

With c1ccc2[nH]cnc2c1 [Number 112] as the molecule, how does the pKa read?
Its pKa is 16.4.

Which pKa does the source give for c1ccc2cc3ncccc3cc2c1 [Number 113] here?
The pKa was 5.05.

Which pKa does the source give for c1ccc2c(c1)[nH]c1ccccc12 [Number 114] here?
The pKa was 19.9.

Which pKa does the source give for c1ccc2cnccc2c1 [Number 120, isoquinoline] here?
The pKa was 5.14.

For c1ncc2[nH]cnc2n1 [Number 123], which pKa is on record?
The pKa was 2.5.

With c1ncc2[nH]cnc2n1 [Number 124] as the molecule, how does the pKa read?
Its pKa is 8.9.

For c1ccc2c(c1)CCCN2 [Number 132, tetrahydroquinoline], which pKa is on record?
Its pKa is 5.
